Reference: PubChem BioAssay (NCI)
“And” between values parts separate entries of the source, which are not always exact repeats. Equal entries are not always repeated.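 Cultured in 96-well plates, cells were exposed to test compound for 48 hours across five concentrations. The concentration for 50% growth inhibition is given as GI50. Definition used: TGI = concentration required for complete inhibition of growth.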

Experiments:
Assay in all cases: growth of human tumour cells (NCI), 48 h
HCT-116 colon = tested on: HCT-116 colon
HCT-15 colon = tested on: HCT-15 colon
HOP-62 NSCLC = tested on: HOP-62 NSCLC
KM12 colon = tested on: KM12 colon
MDA-MB-231 breast = tested on: MDA-MB-231 breast
MOLT-4 leukemia = tested on: MOLT-4 leukemia
NCI-H522 lung = tested on: NCI-H522 lung
PC-3 prostate = tested on: PC-3 prostate
SK-MEL-5 melanoma = tested on: SK-MEL-5 melanoma
UACC-257 melanoma = tested on: UACC-257 melanoma

Row | SMILES | TGI (HCT-116 colon) | TGI (HCT-15 colon) | TGI (HOP-62 NSCLC) | TGI (KM12 colon) | TGI (MDA-MB-231 breast) | TGI (MOLT-4 leukemia) | TGI (NCI-H522 lung) | TGI (PC-3 prostate) | TGI (SK-MEL-5 melanoma) | TGI (UACC-257 melanoma) | GI50 (HCT-116 colon) | GI50 (HCT-15 colon) | GI50 (HOP-62 NSCLC) | GI50 (KM12 colon) | GI50 (MDA-MB-231 breast) | GI50 (MOLT-4 leukemia) | GI50 (NCI-H522 lung) | GI50 (PC-3 prostate) | GI50 (SK-MEL-5 melanoma) | GI50 (UACC-257 melanoma)
1 | O=C1C=CC(=O)c2c1nc(CBr)[nH]c2=O | > 100 µM | > 100 µM | > 100 µM | > 100 µM | > 100 µM | > 100 µM | > 100 µM | > 100 µM | > 100 µM | > 100 µM | – | – | – | – | – | – | – | – | – | –
2 | CNC(=O)c1cc(Oc2ccc(NC(=O)Nc3cc(C(C)(C)C)nn3-c3ccc4ncccc4c3)c(F)c2)ccn1 | 7.28 µM and 5.94 µM | 7.3 µM and 8.53 µM | 7.56 µM and 7.34 µM | 5.19 µM and 5.41 µM | 7.12 µM and 5.78 µM | 8.06 µM and 5.85 µM | 4.91 µM and 5.31 µM | 6.78 µM and 5.17 µM | 2.86 µM and 3.14 µM | 5.56 µM and 3.72 µM | 1.41 µM and 1.37 µM | 2.01 µM and 2.35 µM | 2.24 µM and 2.2 µM | 0.0422 µM and 0.0433 µM | 0.827 µM and 0.963 µM | 1.58 µM and 2.08 µM | 1.78 µM and 2.2 µM | 1.83 µM and 1.68 µM | 1.35 µM and 1.51 µM | 0.477 µM and 0.44 µM
3 | COc1cc(C(=O)n2nc(N)c3c(C)cc(C)nc32)cc(OC)c1OC | > 100 µM | > 100 µM | > 100 µM | > 100 µM | > 100 µM | > 100 µM | > 100 µM | > 100 µM | > 100 µM | > 100 µM | 42 µM | 1.38 µM | 40.8 µM | 10.4 µM | > 100 µM | 7.26 µM | 10.8 µM | > 100 µM | 35.2 µM | > 100 µM
4 | Cc1cc(N2CCOCC2)nc(NCc2cc(Nc3ccnc4cc(Cl)ccc34)ccc2F)n1 | 3.08 µM | 3.3 µM | 2.96 µM | 3.21 µM | 3.63 µM | 3.66 µM | 3.85 µM | 3.48 µM | 2.94 µM | 3.54 µM | 1.51 µM | 1.7 µM | 1.51 µM | 1.69 µM | 1.88 µM | 1.4 µM | 1.95 µM | 1.8 µM | 1.56 µM | 1.85 µM
5 | N=C(CC(=O)Nc1ccccn1)c1ccccc1 | > 100 µM | > 100 µM | > 100 µM | > 100 µM | > 100 µM | > 100 µM | > 100 µM | > 100 µM | > 100 µM | > 100 µM | – | – | – | – | – | – | – | – | – | –
6 | CC(C)(C)[Si](C)(C)OC1[C@@H](COC(=O)NC(=O)CCl)O[C@@H](n2cnc3c(N)ncnc32)[C@H]1O[Si](C)(C)C(C)(C)C (stereo not given in full) | 5.15 µM | 2.21 µM | 10.3 µM | 6.48 µM | 2.76 µM | 2.22 µM | 0.312 µM | 9.79 µM | 5.02 µM | 13.8 µM | 1.53 µM | 1 µM | 4.04 µM | 2.55 µM | 1.12 µM | 1.01 µM | 0.122 µM | 3.15 µM | 1.82 µM | 6.98 µM
